Source: PubChem BioAssay (NCI)
Values joined by “and” are separate entries in the source; they are usually repeats but may differ in a detail not shown here. Equal entries are not always repeated.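 Results reflect a 48-hour exposure of cells in 96-well plates to compound at five concentrations. The concentration for 50% growth inhibition is given as GI50. At the TGI there is no net growth.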 Where a SMILES comes first, the peptide text is derived from it. [ ]: non-standard residue; d: D form. The star is where a group is joined. Bn2Val = CC(C)[C@@H](C(=O)*)N(Cc1ccccc1)Cc1ccccc1; NMeV = CN[C@H](C(=O)O)C(C)C; X29 = COc1ccc(CN*)c(OC)c1; dNMeA = CN[C@H](C)C(=O)O

Assays:
Test in all cases: NCI anticancer screen, dose series, 48 h
MDA-MB-435 = tested on: MDA-MB-435
MDA-N = tested on: MDA-N
K-562 leukemia = tested on: K-562 leukemia
MDA-MB-231 breast = tested on: MDA-MB-231 breast
NCI-H226 lung = tested on: NCI-H226 lung
HOP-62 NSCLC = tested on: HOP-62 NSCLC
COLO 205 colon = tested on: COLO 205 colon
CAKI-1 renal = tested on: CAKI-1 renal
BT-549 breast = tested on: BT-549 breast

| SMILES | TGI (MDA-MB-435) | TGI (MDA-N) | TGI (K-562 leukemia) | TGI (MDA-MB-231 breast) | TGI (NCI-H226 lung) | TGI (HOP-62 NSCLC) | TGI (COLO 205 colon) | TGI (CAKI-1 renal) | TGI (BT-549 breast) | GI50 (MDA-MB-435) | GI50 (K-562 leukemia) | GI50 (MDA-MB-231 breast) | GI50 (NCI-H226 lung) | GI50 (HOP-62 NSCLC) | GI50 (COLO 205 colon) |
| --- | --- | --- | --- | --- | --- | --- | --- | --- | --- | --- | --- | --- | --- | --- | --- |
| O=C1C=C2CCC[C@H]3OC(=O)C[C@@]23CC1 | > 100 µM | > 100 µM | > 100 µM | > 100 µM | > 100 µM | > 100 µM | > 100 µM | > 100 µM | – | – | – | – | – | – | – |
| Cc1c(OCc2ccccc2)c(=O)ccn1CCc1c[nH]c2ccccc12 | 51.1 µM | 79.9 µM | – | > 100 µM | – | > 100 µM | 32.1 µM | – | > 100 µM | – | – | – | – | – | – |
| COc1ccc(CNC(=O)[C@@H]2CCCN2C(=O)[C@@H](C)N(C)C(=O)[C@H](C(C)C)N(C)C(=O)[C@@H](NC(=O)[C@H](C(C)C)N(Cc2ccccc2)Cc2ccccc2)C(C)C)c(OC)c1 (Bn2Val-V[NMeV][dNMeA]P-X29) | 6.61 µM | 5.78 µM | > 100 µM | 3.46 µM | 22.1 µM | 21.1 µM | 5.09 µM | 15.5 µM | 7.72 µM | – | – | – | – | – | – |
| CC(C)(O)C1CC[C@]2(C)[C@H]3CC[C@@H]4[C@@]5(C)CCCC(C)(C)[C@@H]5CC[C@@]4(C)[C@]3(C)CC[C@@H]12 (stereo not given in full) | > 100 µM | > 100 µM | – | > 100 µM | – | > 100 µM | > 100 µM | > 100 µM | > 100 µM | – | – | – | – | – | – |
| CN1N=C(c2ccncc2)OC1c1cccc(C(F)(F)F)c1 (stereo not given) | > 100 µM | > 100 µM | > 100 µM | > 100 µM | > 100 µM | > 100 µM | > 100 µM | – | – | – | – | – | – | – | – |
| O=C(Sc1c(-c2ccccc2)c(=O)n(-c2ccccc2)c(=S)n1-c1ccccc1)c1cccs1 | > 100 µM | > 100 µM | > 100 µM | – | > 100 µM | > 100 µM | > 100 µM | > 100 µM | > 100 µM | – | – | – | – | – | – |
| COC(=O)c1c(C)cccc1C1CN=NC12Cc1ccc(C)c(C)c1C2=O (stereo not given) | > 100 µM | > 100 µM | > 100 µM | > 100 µM | > 100 µM | > 100 µM | – | > 100 µM | – | – | – | – | – | – | – |
| Cn1c([C@H](C#N)C(=O)c2cc(O)ccc2[N+](=O)[O-])nc2ccccc21 | > 100 µM | > 100 µM | – | > 100 µM | – | > 100 µM | > 100 µM | > 100 µM | > 100 µM | – | – | – | – | – | – |
| CCOC(=O)NNC(=O)NCc1ccccc1CNC(=O)NNC(=O)OCC | > 100 µM | > 100 µM | > 100 µM | > 100 µM | > 100 µM | – | > 100 µM | > 100 µM | > 100 µM | – | – | – | – | – | – |
| OCC(CCc1ccccc1I)C1=CCC2(CC1)OCCO2 (stereo not given) | 30.7 µM | 36.5 µM | > 100 µM | 62.9 µM | 88.2 µM | 37.4 µM | 34.6 µM | 65.2 µM | – | – | – | – | – | – | – |
| COC(=O)C1=C(O)C(C(=O)OC)[C@]2(O)[C@@H](C(=O)OC)[C@H]1C[C@@H](c1ccccc1)[C@@H]2C(=O)OC (stereo not given in full) | 30.6 µM | 19.1 µM | 33.4 µM | 49.3 µM | 61.5 µM | 41.7 µM | – | – | 33.5 µM | – | – | – | – | – | – |
| C=C[C@@]1(O)CCCC[C@@H]1CC(Sc1ccccc1)Sc1ccccc1 | 33 µM | 44.8 µM | > 100 µM | 33.2 µM | 38.7 µM | 29.5 µM | 32.3 µM | 30.1 µM | – | – | – | – | – | – | – |
| Cc1ccc(S(=O)(=O)NC(=O)NC(CCCCN=C(N)N)C(=O)O)cc1 (stereo not given) | – | > 100 µM | > 100 µM | > 100 µM | – | > 100 µM | > 100 µM | – | > 100 µM | – | – | – | – | – | – |
| COC(=O)NNC(c1ccc(Cl)cc1)c1ccc(Cl)cc1 | > 100 µM | 45.6 µM | 53 µM | 25.8 µM | 35.3 µM | – | 38 µM | 35.7 µM | 32.4 µM | – | – | – | – | – | – |
| N#C/C(=C\c1ccc([N+](=O)[O-])s1)c1nc2cc(Cl)ccc2s1 | 3.19 µM | – | > 100 µM | 1.21 µM | 2.36 µM | 5.44 µM | 4.06 µM | – | – | 1650 nM | 0.264 µM | 297 nM | 690 nM | 1830 nM | 1550 nM |
| O=S(=O)(c1ccc(-c2nnc(-c3ccc(F)cc3)o2)cc1)c1ccc(-c2nnc(-c3ccc(F)cc3)o2)cc1 | > 100 µM | > 100 µM | > 100 µM | – | > 100 µM | > 100 µM | > 100 µM | > 100 µM | > 100 µM | – | – | – | – | – | – |
| C=C1[C@@](C)([C@@H]2CCCS2)[C@H]2C(C)=C[C@]1(C)n1c(=O)n(-c3ccccc3)c(=O)n12 | > 100 µM | > 100 µM | – | > 100 µM | > 100 µM | > 100 µM | > 100 µM | > 100 µM | > 100 µM | – | – | – | – | – | – |
| O=C1CC(C(OCc2ccccc2)C(OCc2ccccc2)C(COCc2ccccc2)OCc2ccccc2)CC(=O)N1 (stereo not given) | > 100 µM | > 100 µM | > 100 µM | > 100 µM | > 100 µM | – | > 100 µM | – | > 100 µM | – | > 100 µM and 41 µM | – | – | – | – |
